Like-named read-outs stand apart in the source and are kept apart here.
Assay: Plasma pharmacokinetics with loading dose and weekly or twice weekly maintenance dosing, fed (Example 5)
Assay type: in vivo, human
Settings: human, plasma, oral; for Cmax: read-out: Mean Cmax (SD); for AUC: read-out: Mean AUCτ (SD); for AUC(0-inf): read-out: Mean AUC∞ (SD); for concentration at 72 h: read-out: Mean C72 h (SD)
Procedure: A pharmaceutical formulation comprising Compound (a) as described in Example 2 (SF2a/b) was administered as an oral dosage form, to healthy adult participants, in a fed state. Four dose regimens were applied: • Panel I (weekly dosing): 450 mg of Compound (a) twice a day (BID) for two days: on day 1 (D1) and on day 2 (D2) (loading dose); and then 900 mg once a week (Q7D), on day 3 (D3), day 10 (D10), day 17 (D17), and on day 24 (D24) (maintenance dose). • Panel II (biweekly dosing): 450 mg of Compound (a) twice a day (BID) for two days: on day 1 (D1) and on day 2 (D2); (loading dose) and then 450 mg once every 3 (Q3D) or 4 days (Q4D): on day 3 (D3), on day 6 (D6), on day 10 (D10), on day 13 (D13), on day 17 (D17), on day 20 (D20), on day 24 (D24), and on day 27 (D27), for a total of 900 mg each week administered through two doses of 450 mg each (maintenance dose). • Panel III (weekly dosing): 150 mg of Compound (a) twice a day (BID) for two days: on day 1 (D1) and on day 2 (D2) (loading dose); and then 300 mg once a week (Q7D): on day 3 (D3), day 10 (D10), day 17 (D17), and on day 24 (D24) (maintenance dose). • Panel IV (biweekly dosing): 150 mg of Compound (a) twice a day (BID) for two days: on day 1 (D1) and on day 2 (D2) (loading dose); and then 150 mg Q3D or Q4D: on day 3 (D3), on day 6 (D6), on day 10 (D10), on day 13 (D13), on day 17 (D17), on day 20 (D20), on day 24 (D24), and on day 27 (D27), for a total of 300 mg each week administered through two doses of 150 mg each (maintenance dose).
Oral dosage forms were administered together with approximately 240 mL of non-carbonated water under fed conditions, and were taken within 10 minutes after completion of normal standardized normal fat breakfast in the morning or after completion of normal standardized normal fat dinner in case of evening dosing. Intake of Compound (a) took place at around the same time each day. Intake of Compound (a) marked time 0 hours.
A standardized normal fat meal was served approximately 30 minutes before study drug intake. The standardized normal fat meal contained approximately 21 g of fat, 67 g of carbohydrates, 19 g of proteins resulting in around 533 kcal (an example meal is 4 slices of bread, 2 slices of ham or cheese, butter, jelly, and 1 or 2 cups (up to 355 mL) of decaffeinated coffee or tea with milk and/or sugar). The standardized normal fat meal was ingested entirely within 30 minutes or less. Within 10 minutes after completing the meal, but no more than 30 minutes after the start of the meal, study drug was administered. In case of Compound (a) intake in the evening, timing of standardized dinner was aligned to time of drug intake. […]
For Study Panel 1 only, additional whole blood samples were be collected on Days 1, 24, 25, 26, 38, 45, 51, and 59 using venipuncture. The whole blood samples were be used for the determination of Compound (a) whole blood concentrations and for determination of Compound (a) plasma concentrations. To determine Compound (a) venous whole blood concentrations, an aliquot of the whole blood sample was be pipetted onto the TASSO M-20 for better comparison with capillary whole blood samples collected by TASSO M-20. […]
Separation between metabolites and interfering endogenous compounds was achieved by injecting 2 μL sample extract onto an Acquity UPLC BEH C18 column (50×2.1 mm, 1.7 μm, Waters) at 50° C. and using 10 mM ammonium bicarbonate solution as mobile phase A, and methanol: acetonitrile (50:50, v/v) as mobile phase B. A gradient elution at a flow rate of 0.600 mL/min was applied using the following program: 35% B was increased to 90% B in 3 min, was further increased to 98% B at 3.01 min and held constant up to 4.00 min.
A Triple Quad 6500+ mass spectrometer (Sciex) equipped with a turbo ion spray source was used for analyte detection in positive ion mode using electrospray ionization. […]

[1] = 450 mg, Panel I (450 mg BID Days 1-2, then 900 mg Q7D; SF2a/b, fed), Day 2
[2] = 450 mg, Panel II (450 mg BID Days 1-2, then 450 mg Q3D/Q4D; SF2a/b, fed), Day 27
[3] = Panel I (450 mg BID Days 1-2, then 900 mg Q7D; SF2a/b, fed), Day 24
[4] = Panel II (450 mg BID Days 1-2, then 450 mg Q3D/Q4D; SF2a/b, fed), Day 2
[5] = Panel III (150 mg BID Days 1-2, then 300 mg Q7D; SF2a/b, fed), Day 24
[6] = Panel IV (150 mg BID Days 1-2, then 150 mg Q3D/Q4D; SF2a/b, fed), Day 2

Compound: COc1cc(NC(C(=O)c2c[nH]c3ccc(OC(F)(F)F)cc23)c2ccc(Cl)cc2OC)cc(S(C)(=O)=O)c1 (stereo not drawn) [Compound (a)]
- Cmax (300 mg, Panel III (150 mg BID Days 1-2, then 300 mg Q7D; SF2a/b, fed), Day 3): 3100 ng/mL
- Tmax (300 mg, Panel III (150 mg BID Days 1-2, then 300 mg Q7D; SF2a/b, fed), Day 3, read-out: Median tmax (min-max)): 5 h
- AUC (450 mg, Panel I (450 mg BID Days 1-2, then 900 mg Q7D; SF2a/b, fed), Day 1): 17.5 µg·h/mL
- Tmax (450 mg, Panel I (450 mg BID Days 1-2, then 900 mg Q7D; SF2a/b, fed), Day 1, read-out: Median tmax (min-max)): 7.5 h
- AUC [1]: 46.5 µg·h/mL
- Cmax [1]: 5080 ng/mL
- Tmax (450 mg, Panel I (450 mg BID Days 1-2, then 900 mg Q7D; SF2a/b, fed), Day 2, read-out: Median tmax (min-max)): 5.5 h
- Cmax (450 mg, Panel II (450 mg BID Days 1-2, then 450 mg Q3D/Q4D; SF2a/b, fed), Day 1): 1960 ng/mL
- AUC(0-t) (450 mg, Panel II (450 mg BID Days 1-2, then 450 mg Q3D/Q4D; SF2a/b, fed), Day 3, read-out: Mean AUC24 h (SD)): 110 µg·h/mL
- AUC(0-t) (450 mg, Panel II (450 mg BID Days 1-2, then 450 mg Q3D/Q4D; SF2a/b, fed), Day 3, read-out: Mean AUC72 h (SD)): 263 µg·h/mL
- Cmax (450 mg, Panel II (450 mg BID Days 1-2, then 450 mg Q3D/Q4D; SF2a/b, fed), Day 3): 5950 ng/mL
- Tmax (450 mg, Panel II (450 mg BID Days 1-2, then 450 mg Q3D/Q4D; SF2a/b, fed), Day 3, read-out: Median tmax (min-max)): 6.5 h
- Cmax (450 mg, Panel II (450 mg BID Days 1-2, then 450 mg Q3D/Q4D; SF2a/b, fed), Day 6): 4380 ng/mL
- Cmax (450 mg, Panel II (450 mg BID Days 1-2, then 450 mg Q3D/Q4D; SF2a/b, fed), Day 10): 4080 ng/mL
- Cmax (450 mg, Panel II (450 mg BID Days 1-2, then 450 mg Q3D/Q4D; SF2a/b, fed), Day 13): 4070 ng/mL
- Cmax (450 mg, Panel II (450 mg BID Days 1-2, then 450 mg Q3D/Q4D; SF2a/b, fed), Day 17): 3940 ng/mL
- Cmax (450 mg, Panel II (450 mg BID Days 1-2, then 450 mg Q3D/Q4D; SF2a/b, fed), Day 20): 4060 ng/mL
- Cmax (450 mg, Panel II (450 mg BID Days 1-2, then 450 mg Q3D/Q4D; SF2a/b, fed), Day 24): 3920 ng/mL
- AUC(0-t) (450 mg, Panel II (450 mg BID Days 1-2, then 450 mg Q3D/Q4D; SF2a/b, fed), Day 27, read-out: Mean AUC24 h (SD)): 74.2 µg·h/mL
- AUC(0-t) (450 mg, Panel II (450 mg BID Days 1-2, then 450 mg Q3D/Q4D; SF2a/b, fed), Day 27, read-out: Mean AUC72 h (SD)): 197 µg·h/mL
- AUC(0-t) (450 mg, Panel II (450 mg BID Days 1-2, then 450 mg Q3D/Q4D; SF2a/b, fed), Day 27, read-out: Mean AUClast (SD)): 771 µg·h/mL
- AUC(0-inf) [2]: 809 µg·h/mL
- Cmax [2]: 3980 ng/mL
- Tmax (450 mg, Panel II (450 mg BID Days 1-2, then 450 mg Q3D/Q4D; SF2a/b, fed), Day 27, read-out: Median tmax (min-max)): 6 h
- AUC(0-t) (900 mg, Panel I (450 mg BID Days 1-2, then 900 mg Q7D; SF2a/b, fed), Day 3, read-out: Mean AUC24 h (SD)): 129 µg·h/mL
- AUC(0-t) (900 mg, Panel I (450 mg BID Days 1-2, then 900 mg Q7D; SF2a/b, fed), Day 3, read-out: Mean AUC72 h (SD)): 318 µg·h/mL
- Cmax (900 mg, Panel I (450 mg BID Days 1-2, then 900 mg Q7D; SF2a/b, fed), Day 3): 6560 ng/mL
- Tmax (900 mg, Panel I (450 mg BID Days 1-2, then 900 mg Q7D; SF2a/b, fed), Day 3, read-out: Median tmax (min-max)): 5 h
- Cmax (Panel I (450 mg BID Days 1-2, then 900 mg Q7D; SF2a/b, fed), Day 1): 2020 ng/mL
- Cmax (Panel I (450 mg BID Days 1-2, then 900 mg Q7D; SF2a/b, fed), Day 10): 4240 ng/mL
- Cmax (Panel I (450 mg BID Days 1-2, then 900 mg Q7D; SF2a/b, fed), Day 17): 4280 ng/mL
- AUC(0-t) (Panel I (450 mg BID Days 1-2, then 900 mg Q7D; SF2a/b, fed), Day 24, read-out: Mean AUC24 h (SD)): 79.7 µg·h/mL
- AUC(0-t) (Panel I (450 mg BID Days 1-2, then 900 mg Q7D; SF2a/b, fed), Day 24, read-out: Mean AUC72 h (SD)): 195 µg·h/mL
- AUC(0-t) (Panel I (450 mg BID Days 1-2, then 900 mg Q7D; SF2a/b, fed), Day 24, read-out: Mean AUClast (SD)): 657 µg·h/mL
- AUC(0-inf) [3]: 676 µg·h/mL
- Cmax [3]: 4260 ng/mL
- Tmax (Panel I (450 mg BID Days 1-2, then 900 mg Q7D; SF2a/b, fed), Day 24, read-out: Median tmax (min-max)): 6 h
- AUC (Panel II (450 mg BID Days 1-2, then 450 mg Q3D/Q4D; SF2a/b, fed), Day 1): 15.5 µg·h/mL
- Tmax (Panel II (450 mg BID Days 1-2, then 450 mg Q3D/Q4D; SF2a/b, fed), Day 1, read-out: Median tmax (min-max)): 5.5 h
- AUC [4]: 44.9 µg·h/mL
- Cmax [4]: 4640 ng/mL
- Tmax (Panel II (450 mg BID Days 1-2, then 450 mg Q3D/Q4D; SF2a/b, fed), Day 2, read-out: tmax): 5 h
- Cmax (Panel III (150 mg BID Days 1-2, then 300 mg Q7D; SF2a/b, fed), Day 1): 741 ng/mL
- Cmax (Panel III (150 mg BID Days 1-2, then 300 mg Q7D; SF2a/b, fed), Day 10): 2180 ng/mL
- Cmax (Panel III (150 mg BID Days 1-2, then 300 mg Q7D; SF2a/b, fed), Day 17): 2050 ng/mL
- AUC(0-t) (Panel III (150 mg BID Days 1-2, then 300 mg Q7D; SF2a/b, fed), Day 24, read-out: Mean AUC24 h (SD)): 37.2 µg·h/mL
- AUC(0-t) (Panel III (150 mg BID Days 1-2, then 300 mg Q7D; SF2a/b, fed), Day 24, read-out: Mean AUC72 h (SD)): 92.5 µg·h/mL
- AUC(0-t) (Panel III (150 mg BID Days 1-2, then 300 mg Q7D; SF2a/b, fed), Day 24, read-out: Mean AUClast (SD)): 299 µg·h/mL
- AUC(0-inf) [5]: 325 µg·h/mL
- Cmax [5]: 2130 ng/mL
- Tmax (Panel III (150 mg BID Days 1-2, then 300 mg Q7D; SF2a/b, fed), Day 24, read-out: Median tmax (min-max)): 7 h
- AUC (Panel IV (150 mg BID Days 1-2, then 150 mg Q3D/Q4D; SF2a/b, fed), Day 1): 5.98 µg·h/mL
- Tmax (Panel IV (150 mg BID Days 1-2, then 150 mg Q3D/Q4D; SF2a/b, fed), Day 1, read-out: Median tmax (min-max)): 5 h
- AUC [6]: 15.8 µg·h/mL
- Cmax [6]: 1600 ng/mL
- Tmax (Panel IV (150 mg BID Days 1-2, then 150 mg Q3D/Q4D; SF2a/b, fed), Day 2, read-out: tmax): 5 h
- concentration at 72 h (Panel I (450 mg BID Days 1-2, then 900 mg Q7D; SF2a/b, fed), Day 3): 3440 ng/mL
- concentration at 72 h (Panel II (450 mg BID Days 1-2, then 450 mg Q3D/Q4D; SF2a/b, fed), Day 3): 2710 ng/mL
- concentration at 72 h (Panel III (150 mg BID Days 1-2, then 300 mg Q7D; SF2a/b, fed), Day 3): 1210 ng/mL
- concentration at 72 h (Panel IV (150 mg BID Days 1-2, then 150 mg Q3D/Q4D; SF2a/b, fed), Day 3): 865 ng/mL
